These results are taken from ChEMBL document CHEMBL1649198, “Efflux unbalance in Pseudomonas aeruginosa isolates from cystic fibrosis patients” (2009).

In brackets after ≈: the same amount, converted by molar mass.

One test concerns Pseudomonas aeruginosa. In words: Antimicrobial activity against Pseudomonas aeruginosa PAO1 by twofold macrodilution method. Type of test: functional.
Compound `CC1(C)S[C@@H]2[C@H](NC(=O)[C@H](C(=O)O)c3ccsc3)C(=O)N2[C@H]1C(=O)O` [TICARCILLIN] returned a minimal inhibitory concentration (MIC) of 32 µg/mL (≈ 83.2 µM).
Take `NC[C@H]1O[C@H](O[C@H]2[C@H](O)[C@@H](O[C@H]3O[C@H](CO)[C@@H](O)[C@H](N)[C@H]3O)[C@H](N)C[C@@H]2N)[C@H](N)C[C@@H]1O` [TOBRAMYCIN]: the MIC was determined as 0.5 µg/mL (≈ 1.07 µM).

The next test deals with Pseudomonas aeruginosa. In words: Antimicrobial activity against ampicillin- and ticarcillin-resistant Pseudomonas aeruginosa FE60 mutant transformed with pAGH97 carrying mexXY F1018L mutant by twofold macrodilution method. Type of test: functional.
As to `NC[C@H]1O[C@H](O[C@H]2[C@H](O)[C@@H](O[C@H]3O[C@H](CO)[C@@H](O)[C@H](N)[C@H]3O)[C@H](N)C[C@@H]2N)[C@H](N)C[C@@H]1O` [TOBRAMYCIN], the MIC worked out at 1 µg/mL (≈ 2.14 µM).

A further test concerns Pseudomonas aeruginosa. Put plainly: Antimicrobial activity against ampicillin- and ticarcillin-resistant Pseudomonas aeruginosa FE60 mutant transformed with pAGH97 carrying mexXY operon by twofold macrodilution method. It counts as functional.
In turn, `NC[C@H]1O[C@H](O[C@H]2[C@H](O)[C@@H](O[C@H]3O[C@H](CO)[C@@H](O)[C@H](N)[C@H]3O)[C@H](N)C[C@@H]2N)[C@H](N)C[C@@H]1O` [TOBRAMYCIN] gave an MIC of 0.5 µg/mL (≈ 1.07 µM).

A further test deals with Pseudomonas aeruginosa. In words: Antimicrobial activity against Pseudomonas aeruginosa isolate 2933 obtained from cystic fibrosis patient by disk diffusion method. It counts as functional.
Take `CC1(C)S[C@@H]2[C@H](NC(=O)[C@H](C(=O)O)c3ccsc3)C(=O)N2[C@H]1C(=O)O` [TICARCILLIN]: the minimal inhibitory concentration (MIC) was determined as 0.5 µg/mL (≈ 1.3 µM).
Regarding `NC[C@H]1O[C@H](O[C@H]2[C@H](O)[C@@H](O[C@H]3O[C@H](CO)[C@@H](O)[C@H](N)[C@H]3O)[C@H](N)C[C@@H]2N)[C@H](N)C[C@@H]1O` [TOBRAMYCIN], the lowest concentration to inhibit growth (MIC) was 4 µg/mL (≈ 8.56 µM). This MIC is about 8-fold higher than that of the compound before.

The test system of another test is Pseudomonas aeruginosa. In words: Antimicrobial activity against Pseudomonas aeruginosa isolate 2858 obtained from cystic fibrosis patient by disk diffusion method. It counts as functional.
The compound `CC1(C)S[C@@H]2[C@H](NC(=O)[C@H](C(=O)O)c3ccsc3)C(=O)N2[C@H]1C(=O)O` [TICARCILLIN] showed an MIC of 2 µg/mL (≈ 5.2 µM).
`NC[C@H]1O[C@H](O[C@H]2[C@H](O)[C@@H](O[C@H]3O[C@H](CO)[C@@H](O)[C@H](N)[C@H]3O)[C@H](N)C[C@@H]2N)[C@H](N)C[C@@H]1O` [TOBRAMYCIN]: the MIC is 1 µg/mL (≈ 2.14 µM).

The test system of a further test is Pseudomonas aeruginosa. Put plainly: Antimicrobial activity against Pseudomonas aeruginosa isolate 2729 obtained from cystic fibrosis patient by disk diffusion method. It counts as functional.
For `CC1(C)S[C@@H]2[C@H](NC(=O)[C@H](C(=O)O)c3ccsc3)C(=O)N2[C@H]1C(=O)O` [TICARCILLIN], inhibition of growth (MIC) required 0.5 µg/mL (≈ 1.3 µM).
Take `NC[C@H]1O[C@H](O[C@H]2[C@H](O)[C@@H](O[C@H]3O[C@H](CO)[C@@H](O)[C@H](N)[C@H]3O)[C@H](N)C[C@@H]2N)[C@H](N)C[C@@H]1O` [TOBRAMYCIN]: inhibition of growth (MIC) required 2 µg/mL (≈ 4.28 µM).

The next test relates to Pseudomonas aeruginosa. Put plainly: Antimicrobial activity against Pseudomonas aeruginosa mutGR1 overexpressing mexXY mutant by twofold macrodilution method. Type of test: functional.
For `CC1(C)S[C@@H]2[C@H](NC(=O)[C@H](C(=O)O)c3ccsc3)C(=O)N2[C@H]1C(=O)O` [TICARCILLIN], inhibition of growth (MIC) required 32 µg/mL (≈ 83.2 µM).
For `NC[C@H]1O[C@H](O[C@H]2[C@H](O)[C@@H](O[C@H]3O[C@H](CO)[C@@H](O)[C@H](N)[C@H]3O)[C@H](N)C[C@@H]2N)[C@H](N)C[C@@H]1O` [TOBRAMYCIN], the MIC was determined as 1 µg/mL (≈ 2.14 µM).

The next test has as its system Pseudomonas aeruginosa. In words: Antimicrobial activity against Pseudomonas aeruginosa isolate 3020S obtained from cystic fibrosis patient by disk diffusion method. Type of test: functional.
`CC1(C)S[C@@H]2[C@H](NC(=O)[C@H](C(=O)O)c3ccsc3)C(=O)N2[C@H]1C(=O)O` [TICARCILLIN] came in with an MIC of 16 µg/mL (≈ 41.6 µM).
`NC[C@H]1O[C@H](O[C@H]2[C@H](O)[C@@H](O[C@H]3O[C@H](CO)[C@@H](O)[C@H](N)[C@H]3O)[C@H](N)C[C@@H]2N)[C@H](N)C[C@@H]1O` [TOBRAMYCIN] showed an MIC of 0.5 µg/mL (≈ 1.07 µM).

For the next test, the system named is Pseudomonas aeruginosa. Put plainly: Antimicrobial activity against Pseudomonas aeruginosa isolate 2804 obtained from cystic fibrosis patient by disk diffusion method. Type of test: functional.
As to `CC1(C)S[C@@H]2[C@H](NC(=O)[C@H](C(=O)O)c3ccsc3)C(=O)N2[C@H]1C(=O)O` [TICARCILLIN], the MIC came to 0.5 µg/mL (≈ 1.3 µM).
On the same count and under the same terms, the same measure for `NC[C@H]1O[C@H](O[C@H]2[C@H](O)[C@@H](O[C@H]3O[C@H](CO)[C@@H](O)[C@H](N)[C@H]3O)[C@H](N)C[C@@H]2N)[C@H](N)C[C@@H]1O` [TOBRAMYCIN]: 64 µg/mL (≈ 137 µM).

The next test relates to Pseudomonas aeruginosa. In words: Antimicrobial activity against Pseudomonas aeruginosa isolate 2721 obtained from cystic fibrosis patient by agar dilution method.
`CC1(C)S[C@@H]2[C@H](NC(=O)[C@H](C(=O)O)c3ccsc3)C(=O)N2[C@H]1C(=O)O` [TICARCILLIN] returned an MIC of 2 µg/mL (≈ 5.2 µM).
Same read-out and setting: the same measure for `NC[C@H]1O[C@H](O[C@H]2[C@H](O)[C@@H](O[C@H]3O[C@H](CO)[C@@H](O)[C@H](N)[C@H]3O)[C@H](N)C[C@@H]2N)[C@H](N)C[C@@H]1O` [TOBRAMYCIN]: 4 µg/mL (≈ 8.56 µM).

The next test relates to Pseudomonas aeruginosa. In words: Antimicrobial activity against Pseudomonas aeruginosa isolate 2715 obtained from cystic fibrosis patient by agar dilution method.
As to `CC1(C)S[C@@H]2[C@H](NC(=O)[C@H](C(=O)O)c3ccsc3)C(=O)N2[C@H]1C(=O)O` [TICARCILLIN], the MIC stood at 2 µg/mL (≈ 5.2 µM).
In turn, `NC[C@H]1O[C@H](O[C@H]2[C@H](O)[C@@H](O[C@H]3O[C@H](CO)[C@@H](O)[C@H](N)[C@H]3O)[C@H](N)C[C@@H]2N)[C@H](N)C[C@@H]1O` [TOBRAMYCIN] returned an MIC of 2 µg/mL (≈ 4.28 µM).

The next test concerns Pseudomonas aeruginosa. Put plainly: Antimicrobial activity against Pseudomonas aeruginosa isolate 2716 obtained from cystic fibrosis patient by agar dilution method.
As to `CC1(C)S[C@@H]2[C@H](NC(=O)[C@H](C(=O)O)c3ccsc3)C(=O)N2[C@H]1C(=O)O` [TICARCILLIN], the minimal inhibitory concentration (MIC) was found to be 2 µg/mL (≈ 5.2 µM).
Turning to `NC[C@H]1O[C@H](O[C@H]2[C@H](O)[C@@H](O[C@H]3O[C@H](CO)[C@@H](O)[C@H](N)[C@H]3O)[C@H](N)C[C@@H]2N)[C@H](N)C[C@@H]1O` [TOBRAMYCIN], the minimum inhibitory concentration (MIC) is 1 µg/mL (≈ 2.14 µM).

A further test deals with Pseudomonas aeruginosa. Put plainly: Antimicrobial activity against Pseudomonas aeruginosa isolate 3066 obtained from cystic fibrosis patient by disk diffusion method. It counts as functional.
On to `CC1(C)S[C@@H]2[C@H](NC(=O)[C@H](C(=O)O)c3ccsc3)C(=O)N2[C@H]1C(=O)O` [TICARCILLIN], for which the minimum inhibitory concentration (MIC) came to 2 µg/mL (≈ 5.2 µM).
Compound `NC[C@H]1O[C@H](O[C@H]2[C@H](O)[C@@H](O[C@H]3O[C@H](CO)[C@@H](O)[C@H](N)[C@H]3O)[C@H](N)C[C@@H]2N)[C@H](N)C[C@@H]1O` [TOBRAMYCIN] had an MIC of 16 µg/mL (≈ 34.2 µM). This MIC is about 8-fold higher than that of the compound before.

A further test concerns Pseudomonas aeruginosa. In words: Antimicrobial activity against Pseudomonas aeruginosa isolate 615R obtained from cystic fibrosis patient by disk diffusion method. It counts as functional.
For the compound `CC1(C)S[C@@H]2[C@H](NC(=O)[C@H](C(=O)O)c3ccsc3)C(=O)N2[C@H]1C(=O)O` [TICARCILLIN], 2 µg/mL (≈ 5.2 µM) was the least that counted as inhibitory (MIC).
On to `NC[C@H]1O[C@H](O[C@H]2[C@H](O)[C@@H](O[C@H]3O[C@H](CO)[C@@H](O)[C@H](N)[C@H]3O)[C@H](N)C[C@@H]2N)[C@H](N)C[C@@H]1O` [TOBRAMYCIN], for which the minimal inhibitory concentration (MIC) was 2 µg/mL (≈ 4.28 µM).

For the next test, the system named is Pseudomonas aeruginosa. In words: Antimicrobial activity against ampicillin- and ticarcillin-resistant Pseudomonas aeruginosa FE60 mutant transformed with pAGH97 carrying mexXY F29S mutant by twofold macrodilution method. It counts as functional.
For the compound `NC[C@H]1O[C@H](O[C@H]2[C@H](O)[C@@H](O[C@H]3O[C@H](CO)[C@@H](O)[C@H](N)[C@H]3O)[C@H](N)C[C@@H]2N)[C@H](N)C[C@@H]1O` [TOBRAMYCIN], the MIC was found to be 0.5 µg/mL (≈ 1.07 µM).

The next test concerns Pseudomonas aeruginosa. In words: Antimicrobial activity against Pseudomonas aeruginosa isolate 3020R obtained from cystic fibrosis patient by agar dilution method.
`CC1(C)S[C@@H]2[C@H](NC(=O)[C@H](C(=O)O)c3ccsc3)C(=O)N2[C@H]1C(=O)O` [TICARCILLIN]: the MIC is 2 µg/mL (≈ 5.2 µM).
As to `NC[C@H]1O[C@H](O[C@H]2[C@H](O)[C@@H](O[C@H]3O[C@H](CO)[C@@H](O)[C@H](N)[C@H]3O)[C@H](N)C[C@@H]2N)[C@H](N)C[C@@H]1O` [TOBRAMYCIN], the MIC turned out to be 4 µg/mL (≈ 8.56 µM).

In the next test the test system is Pseudomonas aeruginosa. In words: Antimicrobial activity against Pseudomonas aeruginosa isolate 615S obtained from cystic fibrosis patient by disk diffusion method. Type of test: functional.
Compound `CC1(C)S[C@@H]2[C@H](NC(=O)[C@H](C(=O)O)c3ccsc3)C(=O)N2[C@H]1C(=O)O` [TICARCILLIN] yielded an MIC of 1 µg/mL (≈ 2.6 µM).
Consider `NC[C@H]1O[C@H](O[C@H]2[C@H](O)[C@@H](O[C@H]3O[C@H](CO)[C@@H](O)[C@H](N)[C@H]3O)[C@H](N)C[C@@H]2N)[C@H](N)C[C@@H]1O` [TOBRAMYCIN], for which the MIC was found to be 0.25 µg/mL (≈ 0.535 µM). Compared with the last compound, the MIC is about 4-fold lower.

The test system of another test is Pseudomonas aeruginosa. In words: Antimicrobial activity against mexXY deficient ampicillin- and ticarcillin-resistant Pseudomonas aeruginosa FE60 mutant by twofold macrodilution method. Type of test: functional.
Compound `NC[C@H]1O[C@H](O[C@H]2[C@H](O)[C@@H](O[C@H]3O[C@H](CO)[C@@H](O)[C@H](N)[C@H]3O)[C@H](N)C[C@@H]2N)[C@H](N)C[C@@H]1O` [TOBRAMYCIN] returned an MIC of 0.06 µg/mL (≈ 0.128 µM).

For the next test, the system named is Pseudomonas aeruginosa. In words: Ratio of MIC for mexB deficient Pseudomonas aeruginosa FB1 mutant to Pseudomonas aeruginosa PAO1. Type of test: functional.
Consider `CC1(C)S[C@@H]2[C@H](NC(=O)[C@H](C(=O)O)c3ccsc3)C(=O)N2[C@H]1C(=O)O` [TICARCILLIN], for which the “fold change (FC)” value was determined as 64.

The subject of the next test is Pseudomonas aeruginosa. In words: Antimicrobial activity against Pseudomonas aeruginosa isolate 2998 obtained from cystic fibrosis patient by agar dilution method.
As for `CC1(C)S[C@@H]2[C@H](NC(=O)[C@H](C(=O)O)c3ccsc3)C(=O)N2[C@H]1C(=O)O` [TICARCILLIN], the MIC turned out to be 0.5 µg/mL (≈ 1.3 µM).
On to `NC[C@H]1O[C@H](O[C@H]2[C@H](O)[C@@H](O[C@H]3O[C@H](CO)[C@@H](O)[C@H](N)[C@H]3O)[C@H](N)C[C@@H]2N)[C@H](N)C[C@@H]1O` [TOBRAMYCIN], for which the minimum inhibitory concentration (MIC) was 4 µg/mL (≈ 8.56 µM).
